# Experimental data published in publication PMC5650142, “GPR40 partial agonists and AgoPAMs: Differentiating effects on glucose and hormonal secretions in the rodent” (PLoS ONE, 2017).
# “And” between values parts separate entries of the source, which are not always exact repeats. Equal values may be shown once. Read-outs that look alike come from different tables or passages of the source.
# Assays:
# human GPR40 = human GPR40 (Homo sapiens, UniProt O14842); assay: GPR40 binding assay, AgoPAM tracer [3H]25 ([3H]AP9); parameters: expressed in transfected cells; host or cells: CHO / CHO-K1 cells, membrane preparation;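 as to % Bound Normalized to 100: 100% bound is tracer binding in DMSO-only wells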;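 as to %Bound: 100% bound is tracer binding in DMSO-only wells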
# Protocol: Two small molecule tracers, the partial agonist [3H][…] and the AgoPAM [3H]25, are used to measure compound affinity at each site as described previously. Because of the allosteric coupling of the two sites and the nature of the assay, addition of a compound will either displace (binds to same site) or augment (binds to allosterically coupled site) radiotracer. Membranes expressing GPR40 were prepared from CHO cells stably expressing human GPR40. […] Sigma P8830) and were homogenized in 50 ml aliquots with a motor-driven glass Dounce homogenizer, 15 strokes at 1900 rpm on wet ice, repeating once. Homogenates were centrifuged at 2200 rpm for 10 min at 4°C. Supernatants were carefully removed and pooled. Homogenization and centrifugation were repeated until the debris pellet was translucent to maximize membrane recovery. Supernatants were then centrifuged at […] rpm for 20 min. at 4°C. […] Protein concentration was determined by Pierce BCA kit. […] The beads and membrane mixture is then vigorously mixed for 30 minutes at room temperature prior to addition to the assay. […] Next, 15 μl of the radioligand and 35 μl of the beads/membranes solution is added to each well. The assay plates are then sealed and incubated for 30 minutes at room temperature on an orbital shaker. The plates are allowed to settle for 16 hours and then counted on a TopCount scintillation counter (PE). […] Maximal % bound and IC50 are then determined for each test compound. 5 μg/well membrane together with 200 μg/well of PVT WGA SPA beads (GE #RPNG-0001) were suspended in a white 96 well plate with a final concentration of 50 μl/well in assay buffer (50 mM Tris, 10 mM MgCl2, and 2 mM EDTA). […] The plate is briefly mixed and incubated for 3-18 h at room temperature, before it is read on a MicroBeta plate counter (Perkin Elmer, MS, USA).
# GK rats = assay: GK rat acute efficacy (glucose, insulin, glucagon after single dose); type: in vivo; settings: 30 mpk
# In short: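 Food removed ~1 hr after lights on; rats grouped by ambient glucose, each compound given at its maximal effective dose. Glucose, insulin and glucagon measured at 1, 2, 4 and 24 hrs post dose; plasma in K2EDTA with DPP4 and protease inhibitors, insulin by EIA, glucagon by in-house MSD sandwich immunoassay.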
# [1] = test system: pancreatic islets from wild type and GPR40−/− mice; assay: Isolated pancreatic islets static GDIS assay (insulin, glucagon secretion); type: cell-based, mouse; parameters: Islet insulin / Islet insulin, mean: unit not given here; settings: for glucagon secretion from islets: ex vivo; for Islet Glucagon / Islet insulin: individual replicates; for Islet Glucagon, mean / Islet insulin, mean: mean of replicates
# Protocol: Pancreatic islets of Langerhans were isolated from wild type and GPR40^−/− mice (littermates) by collagenase digestion and discontinuous Ficoll gradient separation. […] Insulin secretion was determined by a 1-h static incubation in Krebs-Ringer bicarbonate (KRB) buffer in a 96-well format as previously described. […] The buffer was removed from the wells at the end of the incubation and assayed for insulin levels using the Insulin ELISA kit (ALPCO, Salem, NH) and glucagon level using glucagon ELISA kit (ALPCO, Salem, NH).
# [2] = radioligand L-005306257, dose 0.318285 nM
# [3] = radioligand L-005306257, dose 1.00578 nM
# [4] = radioligand L-005306257, dose 3.17827 nM
# [5] = radioligand L-005306257, dose 10.0433 nM
# [6] = radioligand L-005306257, dose 31.7369 nM
# [7] = radioligand L-005306257, dose 100.289 nM
# [8] = radioligand L-005306257, dose 316.912 nM
# [9] = radioligand L-005306257, dose 1001.44 nM
# [10] = radioligand L-005306257, dose 3164.56 nM
# [11] = radioligand L-005306257, dose 10000 nM
# human GPR40, sequence (O14842 whole entry): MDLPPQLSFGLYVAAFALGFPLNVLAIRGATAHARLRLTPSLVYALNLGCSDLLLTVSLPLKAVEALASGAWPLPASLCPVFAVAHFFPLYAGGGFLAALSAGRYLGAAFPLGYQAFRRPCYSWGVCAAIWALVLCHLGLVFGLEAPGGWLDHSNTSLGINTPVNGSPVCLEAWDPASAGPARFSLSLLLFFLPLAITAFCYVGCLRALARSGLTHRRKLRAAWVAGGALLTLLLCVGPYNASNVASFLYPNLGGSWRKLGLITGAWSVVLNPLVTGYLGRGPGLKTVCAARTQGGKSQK
smiles,measurement,setting,value
COc1ccc(F)c(-c2ccc([C@@H]3CCc4ccc([C@H](C5CC5)[C@H](C)C(=O)O)cc4O3)cc2)c1 [AP1],"Binding Results, % in parentheses, [^3H]AP9","human GPR40; WT human GPR40, maximal % (not defined)",(101%)
same,IC50,"human GPR40; WT human GPR40, n = 2–13, read-out: Binding Results [IC50, nM], [^3H]AP9",2.7 ± 0.7 nM
same,binding of [^3H]25,"human GPR40; human GPR40 membranes, competition binding",displace
same,"%Act, HUMAN GPR40, Binding Data","human GPR40; individual determinations, AgoPAM tracer (per Table 2)",99% and 102%
same,IC50,"human GPR40; individual determinations, AgoPAM tracer (per Table 2), read-out: IC50 (nM), HUMAN GPR40, Binding Data",2.2 nM and 3.2 nM
same,% Bound Normalized to 100,human GPR40; [2],100.21%
same,%Bound,human GPR40; [2],94.32%
same,inhibition at 0.000318285 µM,human GPR40; [2],5.68%
same,% Bound Normalized to 100,human GPR40; [3],76.16%
same,%Bound,human GPR40; [3],70.27%
same,inhibition at 0.00100578 µM,human GPR40; [3],29.7%
same,% Bound Normalized to 100,human GPR40; [4],60.56%
same,%Bound,human GPR40; [4],54.67%
same,inhibition at 0.00317827 µM,human GPR40; [4],45.3%
same,% Bound Normalized to 100,human GPR40; [5],29.85%
same,%Bound,human GPR40; [5],23.96%
same,inhibition at 0.0100433 µM,human GPR40; [5],76%
same,% Bound Normalized to 100,human GPR40; [6],20.26%
same,%Bound,human GPR40; [6],14.37%
same,inhibition at 0.0317369 µM,human GPR40; [6],85.6%
same,% Bound Normalized to 100,human GPR40; [7],11.49%
same,%Bound,human GPR40; [7],5.60%
same,inhibition at 0.100289 µM,human GPR40; [7],94.4%
same,% Bound Normalized to 100,human GPR40; [8],7.10%
same,%Bound,human GPR40; [8],1.21%
same,inhibition at 0.316912 µM,human GPR40; [8],98.8%
same,% Bound Normalized to 100,human GPR40; [9],8.08%
same,%Bound,human GPR40; [9],2.18%
same,inhibition at 1.00144 µM,human GPR40; [9],97.8%
same,% Bound Normalized to 100,human GPR40; [10],6.45%
same,%Bound,human GPR40; [10],0.56%
same,inhibition at 3.16456 µM,human GPR40; [10],99.4%
same,% Bound Normalized to 100,human GPR40; [11],7.75%
same,%Bound,human GPR40; [11],1.86%
same,inhibition at 10 µM,human GPR40; [11],98.1%
same,Plasma Glucagon Over Time (Fig 2C),"GK rats; time 0, individual animals",55.7691 pg/mL and 68.321 pg/mL and 77.904 pg/mL and 111.395 pg/mL and 52.9088 pg/mL and 48.0782 pg/mL and 166.643 pg/mL and 75.2113 pg/mL
same,Plasma Insulin Over Time (Fig 2B),"GK rats; time 0, individual animals",1.368 ng/mL and 2.115 ng/mL and 2.541 ng/mL and 1.628 ng/mL and 3.5154 ng/mL and 1.38 ng/mL and 1.662 ng/mL and 2.024 ng/mL
same,Plasma Glucagon Over Time (Fig 2C),"GK rats; time 1, individual animals",68.4222 pg/mL and 203.855 pg/mL and 443.444 pg/mL and 510.501 pg/mL and 371.284 pg/mL and 243.688 pg/mL and 323.455 pg/mL and 532.086 pg/mL
same,Plasma Insulin Over Time (Fig 2B),"GK rats; time 1, individual animals",2.471 ng/mL and 8.448 ng/mL and 6.286 ng/mL and 2.7997 ng/mL and 8.046 ng/mL and 6.547 ng/mL and 6.926 ng/mL and 4.435 ng/mL
same,Plasma Glucagon Over Time (Fig 2C),"GK rats; time 2, individual animals",677.742 pg/mL and 147.407 pg/mL and 198.886 pg/mL and 95.5346 pg/mL and 199.272 pg/mL and 184.367 pg/mL and 336.315 pg/mL and 387.077 pg/mL
same,Plasma Insulin Over Time (Fig 2B),"GK rats; time 2, individual animals",2.6557 ng/mL and 2.936 ng/mL and 3.027 ng/mL and 0.7256 ng/mL and 3.203 ng/mL and 2.271 ng/mL and 3.072 ng/mL and 2.0183 ng/mL
same,Plasma Glucagon Over Time (Fig 2C),"GK rats; time 4, individual animals",426.615 pg/mL and 76.1995 pg/mL and 36.6178 pg/mL and 86.9884 pg/mL and 83.1703 pg/mL and 202.015 pg/mL and 219.163 pg/mL and 202.907 pg/mL
same,Plasma Insulin Over Time (Fig 2B),"GK rats; time 4, individual animals",2.117 ng/mL and 1.616 ng/mL and 1.477 ng/mL and 1.139 ng/mL and 1.988 ng/mL and 2.587 ng/mL and 2.052 ng/mL
same,Plasma Glucagon Over Time (Fig 2C),"GK rats; time 24, individual animals",168.326 pg/mL and 107.348 pg/mL and 18.8494 pg/mL and 200.464 pg/mL and 140.291 pg/mL and 122.096 pg/mL and 264.039 pg/mL and 261.868 pg/mL
same,Plasma Insulin Over Time (Fig 2B),"GK rats; time 24, individual animals",1.016 ng/mL and 0.9428 ng/mL and 0.1505 ng/mL and 1.222 ng/mL and 1.548 ng/mL and 1.3655 ng/mL and 1.314 ng/mL and 1.563 ng/mL
same,glucagon secretion from islets,[1]; GPR40-/- mouse islets,abolished
same,Islet Glucagon,"[1]; KO mouse islets, G2, 1uM",8.295 pg/ml/ islet and 16.584 pg/ml/ islet and 5.331 pg/ml/ islet and 9.664 pg/ml/ islet and 1.86 pg/ml/ islet and 24.388 pg/ml/ islet and 22.826 pg/ml/ islet and 23.18 pg/ml/ islet and 16.858 pg/ml/ islet and 27.237 pg/ml/ islet
same,Islet insulin,"[1]; KO mouse islets, G2, 1uM",0.224 and 0.186 and 0.933 and 0.721 and 1.124 and 0.514 and 0.261 and 0.152 and 0.181 and 0.215
same,"Islet Glucagon, mean","[1]; KO mouse islets, G2, 1uM",15.6223 pg/ml/ islet
same,"Islet insulin, mean","[1]; KO mouse islets, G2, 1uM",0.4511
same,Islet Glucagon,"[1]; KO mouse islets, G16, 1uM",5.183 pg/ml/ islet and 12.803 pg/ml/ islet and 9.635 pg/ml/ islet and 3.883 pg/ml/ islet and 11.858 pg/ml/ islet and 6.688 pg/ml/ islet and 0.121 pg/ml/ islet and 5.519 pg/ml/ islet and 6.26 pg/ml/ islet and 3.878 pg/ml/ islet
same,Islet insulin,"[1]; KO mouse islets, G16, 1uM",2.959 and 3.403 and 3.966 and 2.272 and 3.839 and 3.783 and 2.961 and 3.664 and 2.593 and 1.94
same,"Islet Glucagon, mean","[1]; KO mouse islets, G16, 1uM",6.5828 pg/ml/ islet
same,"Islet insulin, mean","[1]; KO mouse islets, G16, 1uM",3.138
same,Islet Glucagon,"[1]; WT mouse islets, G2, 1uM",55.828 pg/ml/ islet and 87.628 pg/ml/ islet and 54.498 pg/ml/ islet and 21.019 pg/ml/ islet and 35.248 pg/ml/ islet and 60.615 pg/ml/ islet and 73.937 pg/ml/ islet and 63.3 pg/ml/ islet and 50.656 pg/ml/ islet and 33.503 pg/ml/ islet
same,Islet insulin,"[1]; WT mouse islets, G2, 1uM, listed as L-005306254",0.53 and 1.151 and 0.66 and 1.39 and 2.61 and 1.55 and 1.058 and 0.71 and 0.4565 and 0.7725
same,"Islet Glucagon, mean","[1]; WT mouse islets, G2, 1uM",53.6232 pg/ml/ islet
same,"Islet insulin, mean","[1]; WT mouse islets, G2, 1uM",1.0888
same,Islet Glucagon,"[1]; WT mouse islets, G16, 1uM",29.473 pg/ml/ islet and 34.729 pg/ml/ islet and 57.354 pg/ml/ islet and 33.737 pg/ml/ islet and 7.252 pg/ml/ islet and 14.915 pg/ml/ islet and 23.157 pg/ml/ islet and 23.385 pg/ml/ islet and 38.776 pg/ml/ islet
same,Islet insulin,"[1]; WT mouse islets, G16, 1uM, listed as L-005306254",12.607 and 12.478 and 13.17 and 12.065 and 9.432 and 10.077 and 12.044 and 12.3 and 10.845 and 11.903
same,"Islet Glucagon, mean","[1]; WT mouse islets, G16, 1uM",29.1976 pg/ml/ islet
same,"Islet insulin, mean","[1]; WT mouse islets, G16, 1uM",11.6921
same,glucagon secretion from islets,[1]; WT mouse islets,significantly elevated
